In US20090298878A1, “OXIME COMPOUNDS AND THE USE THEREOF” (priority 2006, published 2009):
Where a name gives a salt, the structure may show the parent alone.

Assays:
[1] = biological target: T1, N-type calcium channel (NTCC) (Homo sapiens, UniProt Q00975); test: FLIPR calcium mobilization assay for N-type calcium channel (differentiated IMR32 cells); assay type: cell-based
T1 construct: host or cells: IMR32 cells differentiated with dibutyryl cAMP and bromodeoxyuridine
Summary of the method: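 Human IMR32 cells differentiated 8 days (1 mM dibutyryl cAMP, 2.5 μM BrdU), pre-stimulated 1 h with 90 mM KCl plus compound (~846 pM–17 μM) and 5 μM nitrendipine, Fluo-4 loaded. FLIPR read basal fluorescence 315 s, then 90 mM KCl agonist added and fluorescence recorded 45 s; non-linear regression.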

[2] = biological target: T2, L-type calcium channel (LTCC) subunits (α1c, α2δ, and β1) (Rattus norvegicus, UniProt P22002); test: FLIPR calcium mobilization assay for L-type calcium channel (HEK293 cells expressing recombinant rat LTCC subunits); assay type: cell-based; settings: calcium mobilization in vitro assay, L-type calcium channel blockers
T2 construct: expressed in transfected cells; pcDNA6.2DEST for α1c, pcDNA3.2DEST for β1, pcDNA3.1-Zeo for α2δ
Procedure: Recombinant human embryonal kidney cells (HEK293, ATCC) stably transfected with either N-type calcium channel (NTCC) subunits (α1b, α2δ, and β3) or L-type calcium channel (LTCC) subunits (α1c, α2δ, and β1) were routinely cultured in growth medium consisting of Dulbecco's Modified Eagles Medium containing 10% FBS, 100 U/mL penicillin, 100 μg/mL streptomycin, 4 mM L-glutamine, 500 μg/mL geneticin (G418), 20 μg/mL Blasticidin S (InVivogen, San Diego, Calif.) and 500 μg/mL zeocin (InVivogen).
FLIPR Calcium Mobilization Assay for L-type Calcium Channel. One day prior to performing this assay, HEK293 cells stably expressing recombinant rat L-type calcium channel (LTCC) subunits (α1c, α2δ, and β1) were trypsinized, then seeded on poly-D-lysine-coated 96-well clear-bottom black plates (Becton Dickinson, Franklin Lakes, N.J.) at 75,000 cells/well. On the day of the assay, the plates were washed with LTCC wash buffer (127 mM NaCl, 2 mM MgCl2, 700 μM NaH2PO4, […], 5 mM NaHCO3, 8 mM HEPES, 10 mM glucose, pH 7.4), then loaded with 0.1 mL of LTCC wash buffer containing Fluo-4 (3 μM final concentration, Molecular Probes, Eugene, Oreg.). After 1 hour, the cells were washed with 0.1 mL LTCC wash buffer and resuspended in 0.05 mL LTCC assay buffer (same composition as LTCC wash buffer). Plates were then transferred to a FLIPR^96 for assay. The FLIPR measured basal Fluo-4 fluorescence for 15 seconds, then added 0.05 mL of each compound tested diluted in LTCC assay buffer at final concentrations ranging from about 846 pM to about 17 μM. Fluo-4 fluorescence was then measured for 5 minutes. 0.1 mL KCl agonist dissolved in LTCC assay buffer was then added to the cells to produce a final concentration of 90 mM KCl, and fluorescence was measured for another 45 seconds. Data were collected over the entire time course and analyzed using Excel, Graph Pad Prism, or an in-house regression analysis software.
Cloning of N- and L-type calcium channel subunit open reading frame cDNAs. Five cDNAs encoding subunits of the rat N- or L-type calcium channels were cloned by PCR amplification in order to reconstitute functional channels in a heterologous system. These were the alpha1b (α1b), beta1 (β1), beta3 (β3), alpha2delta (α2δ), and alpha1c (α1c) subunit cDNAs. The alpha1b subunit cDNA has been described by Dubel et al. in Proc. Natl. Acad. Sci. U.S.A 89: 5058-5062 (1992). The beta1 subunit cDNA has been described by Pragnell et al. in FEBS Lett. 291: 253-258 (1991). The beta3 subunit cDNA has been described by Castellano et al. in J. Biol. Chem. 268: 12359-12366 (1993). The alpha2delta subunit cDNA has been described by Kim et al. in Proc. Natl. Acad. Sci. U.S.A. 89: 3251-3255 (1992). The alpha1c subunit cDNA has been described by Koch et al. in J. Biol. Chem. 265: 17786-17791 (1990).
The 6.5 kb cDNA encoding the L-type calcium channel α1c subunit was cloned by PCR amplification from rat heart cDNA using primers 11 (SEQ ID NO: 11, TABLE 1) and 12 (SEQ ID NO:12, TABLE 1). The PCR fragment was subcloned and fully sequenced on both strands to confirm its identity. A clone matching consensus reference sequence M59786 and rat genomic DNA sequences was recombined into the mammalian expression vector pcDNA6.2DEST. Sequences around the recombinogenic region were sequenced to confirm accurate recombination into the expression vector.
L-type Recombinant Cell Line Development. L-type calcium channel expressing HEK-293 cells were created in two stages. Stage 1 was created as follows. The rat α1c, and β1 cDNA expression constructs (2.5 μg each) were co-transfected into human embryonic kidney (HEK-293) cells by Lipofectamine Plus reagent (Invitrogen), as per manufacturer's instructions. 24 hours later, cells were split in limiting dilution into multiple 96-well plates in selection media containing 20 μg/mL blasticidin and 500 μg/mL geneticin, and incubated for 3 weeks at 37° C., 5% CO2, 95% humidity. […]

[3] = calcium mobilization in vitro assay, N-type calcium channel blockers
[4] = about 1.0 μM or less, calcium mobilization and/or electrophysiological assay

T1 sequence (Q00975 whole entry): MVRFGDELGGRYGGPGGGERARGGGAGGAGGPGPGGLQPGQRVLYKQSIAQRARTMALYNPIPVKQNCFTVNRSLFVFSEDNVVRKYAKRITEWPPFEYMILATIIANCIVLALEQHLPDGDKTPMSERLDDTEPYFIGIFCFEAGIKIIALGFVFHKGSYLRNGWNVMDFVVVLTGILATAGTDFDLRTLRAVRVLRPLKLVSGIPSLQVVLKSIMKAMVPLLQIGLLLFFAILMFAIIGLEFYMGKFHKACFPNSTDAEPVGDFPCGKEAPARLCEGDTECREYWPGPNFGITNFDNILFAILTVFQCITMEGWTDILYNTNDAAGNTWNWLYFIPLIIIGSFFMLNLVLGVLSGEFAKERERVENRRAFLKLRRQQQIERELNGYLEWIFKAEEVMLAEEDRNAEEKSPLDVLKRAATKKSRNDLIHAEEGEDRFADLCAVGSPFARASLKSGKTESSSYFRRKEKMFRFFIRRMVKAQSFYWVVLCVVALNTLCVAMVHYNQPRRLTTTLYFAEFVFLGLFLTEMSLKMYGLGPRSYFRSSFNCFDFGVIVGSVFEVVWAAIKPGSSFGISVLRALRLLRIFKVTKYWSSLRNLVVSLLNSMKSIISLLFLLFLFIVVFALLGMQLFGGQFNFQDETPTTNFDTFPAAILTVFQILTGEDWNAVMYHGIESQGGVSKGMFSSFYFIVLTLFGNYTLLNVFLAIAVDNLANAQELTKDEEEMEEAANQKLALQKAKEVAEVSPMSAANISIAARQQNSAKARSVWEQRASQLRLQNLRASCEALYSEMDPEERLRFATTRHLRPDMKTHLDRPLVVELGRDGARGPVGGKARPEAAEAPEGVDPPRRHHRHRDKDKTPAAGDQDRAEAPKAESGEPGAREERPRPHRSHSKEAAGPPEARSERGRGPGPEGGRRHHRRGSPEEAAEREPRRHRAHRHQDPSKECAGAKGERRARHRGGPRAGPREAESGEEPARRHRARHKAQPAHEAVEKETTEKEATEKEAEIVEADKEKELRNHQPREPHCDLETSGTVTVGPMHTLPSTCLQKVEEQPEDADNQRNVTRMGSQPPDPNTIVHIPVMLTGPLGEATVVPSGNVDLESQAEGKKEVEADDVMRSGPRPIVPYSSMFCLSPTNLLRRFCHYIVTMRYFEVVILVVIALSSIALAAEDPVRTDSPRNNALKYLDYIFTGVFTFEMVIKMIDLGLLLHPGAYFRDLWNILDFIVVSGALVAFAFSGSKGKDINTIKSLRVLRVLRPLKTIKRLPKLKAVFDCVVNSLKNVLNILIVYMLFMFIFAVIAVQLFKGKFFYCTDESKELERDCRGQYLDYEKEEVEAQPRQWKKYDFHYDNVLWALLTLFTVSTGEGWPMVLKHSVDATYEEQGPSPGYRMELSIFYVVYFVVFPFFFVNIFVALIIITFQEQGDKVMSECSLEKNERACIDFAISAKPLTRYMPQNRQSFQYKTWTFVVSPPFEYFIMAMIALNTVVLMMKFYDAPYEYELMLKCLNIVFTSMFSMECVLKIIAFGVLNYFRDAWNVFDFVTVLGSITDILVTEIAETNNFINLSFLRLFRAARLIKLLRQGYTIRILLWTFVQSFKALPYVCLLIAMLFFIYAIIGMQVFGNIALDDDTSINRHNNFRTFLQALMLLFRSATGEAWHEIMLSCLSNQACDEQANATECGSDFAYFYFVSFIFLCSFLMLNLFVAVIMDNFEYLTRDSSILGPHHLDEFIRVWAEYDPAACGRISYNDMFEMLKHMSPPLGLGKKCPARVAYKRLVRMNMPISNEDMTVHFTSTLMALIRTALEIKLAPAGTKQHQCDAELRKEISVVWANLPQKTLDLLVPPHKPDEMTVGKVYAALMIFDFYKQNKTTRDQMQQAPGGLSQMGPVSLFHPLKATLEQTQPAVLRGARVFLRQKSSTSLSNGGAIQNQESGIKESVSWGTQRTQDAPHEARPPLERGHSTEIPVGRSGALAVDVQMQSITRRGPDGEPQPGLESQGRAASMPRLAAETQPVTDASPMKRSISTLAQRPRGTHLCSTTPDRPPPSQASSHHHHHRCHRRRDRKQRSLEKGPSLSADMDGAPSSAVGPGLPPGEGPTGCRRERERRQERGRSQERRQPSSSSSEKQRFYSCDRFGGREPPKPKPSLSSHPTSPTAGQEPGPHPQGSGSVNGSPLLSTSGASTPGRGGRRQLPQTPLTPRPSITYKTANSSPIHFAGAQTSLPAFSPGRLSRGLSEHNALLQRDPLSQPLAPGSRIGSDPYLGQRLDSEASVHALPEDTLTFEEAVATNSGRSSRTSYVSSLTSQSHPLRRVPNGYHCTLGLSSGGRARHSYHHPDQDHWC
T2 sequence (P22002 whole entry): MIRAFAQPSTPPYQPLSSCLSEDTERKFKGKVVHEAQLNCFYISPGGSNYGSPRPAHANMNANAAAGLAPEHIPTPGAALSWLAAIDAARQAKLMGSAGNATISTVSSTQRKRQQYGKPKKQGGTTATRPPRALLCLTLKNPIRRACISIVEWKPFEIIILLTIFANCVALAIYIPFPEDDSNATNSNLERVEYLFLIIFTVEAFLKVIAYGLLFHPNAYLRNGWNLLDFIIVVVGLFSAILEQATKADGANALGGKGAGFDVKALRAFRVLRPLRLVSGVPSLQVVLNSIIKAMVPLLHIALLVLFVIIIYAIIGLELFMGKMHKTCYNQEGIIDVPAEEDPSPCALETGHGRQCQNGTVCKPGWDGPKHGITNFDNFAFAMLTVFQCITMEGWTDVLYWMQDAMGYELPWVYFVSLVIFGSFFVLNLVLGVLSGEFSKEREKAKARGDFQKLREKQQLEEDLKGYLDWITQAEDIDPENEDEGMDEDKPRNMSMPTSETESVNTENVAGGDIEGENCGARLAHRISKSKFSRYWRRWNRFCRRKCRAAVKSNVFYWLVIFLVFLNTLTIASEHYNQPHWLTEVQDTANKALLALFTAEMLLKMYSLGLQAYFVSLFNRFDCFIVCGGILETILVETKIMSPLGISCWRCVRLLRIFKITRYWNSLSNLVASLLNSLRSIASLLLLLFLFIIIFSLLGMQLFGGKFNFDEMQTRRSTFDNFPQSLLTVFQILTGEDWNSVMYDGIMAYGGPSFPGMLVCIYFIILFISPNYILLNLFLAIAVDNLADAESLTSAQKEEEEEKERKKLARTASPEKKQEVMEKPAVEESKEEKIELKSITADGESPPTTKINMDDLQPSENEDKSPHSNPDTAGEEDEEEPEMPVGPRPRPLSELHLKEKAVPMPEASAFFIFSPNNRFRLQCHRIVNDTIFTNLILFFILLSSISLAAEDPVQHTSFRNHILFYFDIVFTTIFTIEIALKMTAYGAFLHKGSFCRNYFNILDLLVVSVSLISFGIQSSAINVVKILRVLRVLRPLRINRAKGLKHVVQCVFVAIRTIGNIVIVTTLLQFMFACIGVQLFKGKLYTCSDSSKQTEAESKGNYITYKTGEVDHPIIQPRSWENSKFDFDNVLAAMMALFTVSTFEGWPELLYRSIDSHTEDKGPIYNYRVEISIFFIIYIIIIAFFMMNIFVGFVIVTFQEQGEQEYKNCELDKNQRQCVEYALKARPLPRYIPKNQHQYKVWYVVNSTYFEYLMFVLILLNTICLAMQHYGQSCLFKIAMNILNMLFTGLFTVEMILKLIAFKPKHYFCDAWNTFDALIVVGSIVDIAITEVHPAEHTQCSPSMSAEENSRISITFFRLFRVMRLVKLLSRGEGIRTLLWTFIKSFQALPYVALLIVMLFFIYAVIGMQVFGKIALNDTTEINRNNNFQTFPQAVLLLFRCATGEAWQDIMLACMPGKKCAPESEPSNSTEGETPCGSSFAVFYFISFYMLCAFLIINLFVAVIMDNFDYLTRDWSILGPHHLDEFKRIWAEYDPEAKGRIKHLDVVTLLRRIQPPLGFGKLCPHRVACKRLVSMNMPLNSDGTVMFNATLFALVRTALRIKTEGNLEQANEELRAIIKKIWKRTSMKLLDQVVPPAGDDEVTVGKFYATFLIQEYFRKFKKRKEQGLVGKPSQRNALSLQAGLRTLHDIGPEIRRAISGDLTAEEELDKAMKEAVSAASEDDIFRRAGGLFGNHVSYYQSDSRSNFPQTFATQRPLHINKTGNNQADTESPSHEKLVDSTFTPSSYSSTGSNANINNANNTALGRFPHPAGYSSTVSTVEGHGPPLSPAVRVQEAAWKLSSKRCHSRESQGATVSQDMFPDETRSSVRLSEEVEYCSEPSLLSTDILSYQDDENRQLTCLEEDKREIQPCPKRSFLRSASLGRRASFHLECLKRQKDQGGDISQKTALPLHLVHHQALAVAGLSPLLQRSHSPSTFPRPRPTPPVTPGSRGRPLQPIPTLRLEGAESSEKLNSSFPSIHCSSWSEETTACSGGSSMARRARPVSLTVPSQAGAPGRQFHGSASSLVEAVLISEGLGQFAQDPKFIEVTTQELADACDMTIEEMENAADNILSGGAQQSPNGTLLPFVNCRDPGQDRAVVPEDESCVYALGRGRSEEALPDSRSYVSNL

| SMILES | IC50 [1, 4] [nM] | also measured |
| --- | --- | --- |
| CN[C@@H](CC(C)C)C(=O)N1CCC(=NOCc2ccc(Cl)cc2)CC1 [Example 4, 1-((S)-4-Methyl-2-methylaminopentanoyl)piperidin-4-one O-(4-chlorobenzyl)oxime hydrochloride] | – | IC50 [1, 3]: 860 nM; IC50 [2]: 15200 nM |
| O=S(=O)(c1ccccc1OC(F)(F)F)N1CCC(=NOC(c2ccc(F)cc2)c2ccc(F)cc2)CC1 [Example 289, 1-(2-(Trifluoromethoxy)phenylsulfonyl)piperidin-4-one O-bis(4-fluorophenyl)methyl oxime] | ≤ 1000 | – |
| O=S(=O)(c1cccc(OC(F)(F)F)c1)N1CCC(=NOC(c2ccc(F)cc2)c2ccc(F)cc2)CC1 [Example 290, 1-(3-(Trifluoromethoxy)phenylsulfonyl)piperidin-4-one O-bis(4-fluorophenyl)methyl oxime] | ≤ 1000 | – |
| O=S(=O)(c1cccnc1)N1CCC(=NOC(c2ccc(F)cc2)c2ccc(F)cc2)CC1 [Example 291, 1-(Pyridin-3-ylsulfonyl)piperidin-4-one O-bis(4-fluorophenyl)methyl oxime] | ≤ 1000 | – |
| O=S(=O)(c1cccc(Cl)c1)N1CCC(=NOC(c2ccc(F)cc2)c2ccc(F)cc2)CC1 [Example 292, 1-(3-Chlorophenylsulfonyl)piperidin-4-one O-bis(4-fluorophenyl)methyl oxime] | ≤ 1000 | – |
| O=S(=O)(c1cccc(C(F)(F)F)c1)N1CCC(=NOCCC2CCCCC2)CC1 [Example 294, 1-(3-(Trifluoromethyl)phenylsulfonyl)piperidin-4-one O-2-cyclohexylethyl oxime] | ≤ 1000 | – |
| O=c1cc(CON=C2CCN(S(=O)(=O)c3ccc(OC(F)(F)F)cc3)CC2)ccn1Cc1ccc(F)cc1 [Example 296, 1-(4-Fluorobenzyl)-4-((1-(4-(trifluoromethoxy)phenylsulfonyl)piperidin-4-ylideneaminooxy)methyl)pyridin-2(1H)-one] | ≤ 1000 | – |
| N#Cc1cccc(C(CN2CCOCC2)ON=C2CCN(S(=O)(=O)c3ccc(OC(F)(F)F)cc3)CC2)c1 (stereo not shown) [Example 302, 3-(2-Morpholino-1-(1-(4-(trifluoromethoxy)phenylsulfonyl)piperidin-4-ylideneaminooxy)ethyl)benzonitrile] | ≤ 1000 | – |
| CC(C)OCC(ON=C1CCN(S(=O)(=O)c2ccc(OC(F)(F)F)cc2)CC1)c1cccc(C#N)c1 (stereo not shown) [Example 303, 3-(2-Isopropoxy-1-(1-(4-(trifluoromethoxy)phenylsulfonyl)piperidin-4-ylideneaminooxy)ethyl)benzonitrile] | ≤ 1000 | – |
| N#Cc1cccc(C(COc2ccc(F)cc2)ON=C2CCN(S(=O)(=O)c3ccc(OC(F)(F)F)cc3)CC2)c1 (stereo not shown) [Example 304, 3-(2-(4-Fluorophenoxy)-1-(1-(4-(trifluoromethoxy)phenylsulfonyl)piperidin-4-ylideneaminooxy)ethyl)benzonitrile] | ≤ 1000 | – |
| O=S(=O)(c1ccc(OC(F)(F)F)cc1)N1CCC(=NOC(c2ccc(F)cc2)C2CC2)CC1 (stereo not shown) [Example 306, 1-(4-(Trifluoromethoxy)phenylsulfonyl)piperidin-4-one O-cyclopropyl(4-fluorophenyl)methyl oxime] | ≤ 1000 | – |
| O=S(=O)(c1ccc(OC(F)(F)F)cc1)N1CCC(=NOC(c2cccc(C(F)(F)F)c2)C2CC2)CC1 (stereo not shown) [Example 307, 1-(4-(Trifluoromethoxy)phenylsulfonyl)piperidin-4-one O-cyclopropyl(3-(trifluoromethyl)phenyl)methyl oxime] | ≤ 1000 | – |
| O=S(=O)(c1cccc(C(F)(F)F)c1)N1CCC(=NOC2CCCCC2)CC1 [Example 309, 1-(3-(Trifluoromethyl)phenylsulfonyl)piperidin-4-one O-cyclohexyl oxime] | ≤ 1000 | – |
| O=S(=O)(c1cccc(C(F)(F)F)c1)N1CCC(=NOCCc2ccccc2)CC1 [Example 310, 1-(3-(Trifluoromethyl)phenylsulfonyl)piperidin-4-one O-phenethyl oxime] | ≤ 1000 | – |
| O=S(=O)(c1ccc(OC(F)(F)F)cc1)N1CCC(=NOCc2ccccc2-c2ccccc2)CC1 [Example 311, 1-(4-(Trifluoromethoxy)phenylsulfonyl)piperidin-4-one O-biphenyl-2-ylmethyl oxime] | ≤ 1000 | – |
| O=S(=O)(c1ccc(OC(F)(F)F)cc1)N1CCC(=NOCc2ncccc2-c2ccccc2)CC1 [Example 313, 1-(4-(Trifluoromethoxy)phenylsulfonyl)piperidin-4-one O-(3-phenylpyridin-2-yl)methyl oxime] | ≤ 1000 | – |
| O=c1ccc(CON=C2CCN(S(=O)(=O)c3ccc(OC(F)(F)F)cc3)CC2)cn1-c1ccc(F)cc1 [Example 314, 1-(4-Fluorophenyl)-5-((1-(4-(trifluoromethoxy)phenylsulfonyl)piperidin-4-ylideneaminooxy)methyl)pyridin-2(1H)-one] | ≤ 1000 | – |
| N#Cc1ccc(-n2cc(CON=C3CCN(S(=O)(=O)c4ccc(OC(F)(F)F)cc4)CC3)ccc2=O)cc1 [Example 315, 4-(2-oxo-5-((1-(4-(trifluoromethoxy)phenylsulfonyl)piperidin-4-ylideneaminooxy)methyl)pyridin-1(2H)-yl)benzonitrile] | ≤ 1000 | – |
| O=S(=O)(c1ccc(NC2CC2)nc1)N1CCC(=NOCc2cccc(C(F)(F)F)c2)CC1 [Example 321, 1-(6-Cyclopropylaminopyridine-3-sulfonyl)piperidin-4-one O-(3-trifluoromethylbenzyl)oxime] | ≤ 1000 | – |
| O=C(CN1CCC(=NOC(c2ccc(F)cc2)c2ccc(F)cc2)CC1)Nc1cc(C(F)(F)F)cc(C(F)(F)F)c1 [Example 328, 2-(4-(Bis(4-fluorophenyl)methoxyimino)piperidin-1-yl)-N-(3,5-bis(trifluoromethyl)phenyl)acetamide] | – | IC50 [1, 3]: 1100 nM |
| O=C(CN1CCC(=NOCc2cccc(C(F)(F)F)c2)CC1)NCc1cc(C(F)(F)F)cc(C(F)(F)F)c1 [Example 329, N-(3,5-Bis(trifluoromethyl)benzyl)-2-(4-(3-(trifluoromethyl)benzyloxyimino)piperidin-1-yl)acetamide] | ≤ 1000 | – |
| CC(C)CCON=C1CCN(S(=O)(=O)c2cccc(C(F)(F)F)c2)CC1 [Example 366, 1-(3-(Trifluoromethyl)phenylsulfonyl)piperidin-4-one O-isopentyl oxime] | ≤ 1000 | – |
| CCCCC(C)ON=C1CCN(S(=O)(=O)c2cccc(C(F)(F)F)c2)CC1 (stereo not shown) [Example 367, 1-(3-(Trifluoromethyl)phenylsulfonyl)piperidin-4-one O-hexan-2-yl oxime] | ≤ 1000 | – |
| O=S(=O)(c1cccc(C(F)(F)F)c1)N1CCC(=NOC/C=C/c2ccccc2)CC1 [Example 368, 1-(3-(Trifluoromethyl)phenylsulfonyl)piperidin-4-one O-cinnamyl oxime] | ≤ 1000 | – |
